Measurements published in patent publication US11369688B2, “Hybrid telodendrimers” (THE REGENTS OF THE UNIVERSITY OF CALIFORNIA, priority 2016, dated 2022).

Experiment: Visual observation of drug-loaded crosslinked PEG5K-(Ahx-(NAc-Cys))4/CA4 nanocarriers
Type: physicochemical
Settings: 1 mg drug/10 mg PEG5K-(Ahx-(NAc-Cys))4/CA4, crosslinked; effective concentration 2 mg drug/20 mg polymer per ml PBS

Compound | Observation
CO[C@H]1C(=O)[C@]2(C)[C@@H](OC)C[C@H]3OC[C@@]3(OC(C)=O)[C@H]2[C@H](OC(=O)c2ccccc2)[C@]2(O)C[C@H](OC(=O)[C@H](O)[C@@H](NC(=O)OC(C)(C)C)c3ccccc3)C(C)=C1C2(C)C [Cabazitaxel, cabazitaxel] | Clear solution
CC(=O)O[C@@]12CO[C@@H]1C[C@H](O)[C@@]1(C)C(=O)[C@H](O)C3=C(C)[C@@H](OC(=O)[C@H](O)[C@@H](NC(=O)OC(C)(C)C)c4ccccc4)C[C@@](O)([C@@H](OC(=O)c4ccccc4)[C@H]21)C3(C)C [Docetaxel, docetaxel] | Clear solution
COc1cccc2c1C(=O)c1c(O)c3c(c(O)c1C2=O)C[C@@](O)(C(=O)CO)C[C@@H]3O[C@H]1C[C@H](N)[C@H](O)[C@H](C)O1 [Doxorubicin] | Clear solution
CCc1c2c(nc3ccc(O)cc13)-c1cc3c(c(=O)n1C2)COC(=O)[C@]3(O)CC [SN-38] | Huge precipitate
CC[C@]1(O)C[C@@H]2CN(CCc3c([nH]c4ccccc34)[C@@](C(=O)OC)(c3cc4c(cc3OC)N(C)[C@H]3[C@@](O)(C(=O)OC)[C@H](OC(C)=O)[C@]5(CC)C=CCN6CC[C@]43[C@@H]65)C2)C1 [Vinblastine] | Clear
